The source of these data is patent publication US20250320206A1, “STAT6 DEGRADERS” (Gilead Sciences, Inc., priority 2024, published 2025).

Molecules are shown by their SMILES.

The test system of the experiment is Eotaxin-3 release in human whole blood stimulated with IL-4. Briefly: Human Whole Blood Eotaxin-3 Assay (IL-4 stimulated eotaxin-3 release). It counts as cell-based. Particulars: IL-4 stimulation, 48 h, values given for compounds with >80% Emax, geometric mean. The method, then: Human Whole Blood Eotaxin-3 Assay
This was a human whole blood assay using recombinant human Interleukin 4 to stimulate the blood and measuring the ability of the test compounds to inhibit eotaxin-3 release. The biological activities of the test compounds have been tested in human whole blood stimulated with IL-4 measuring Eotaxin-3 release. The test compounds were added to 384 well clear flat-bottom plate in a 4-fold serial dilution in triplicates using a liquid handler. Human whole blood stabilized in lithium-heparin tubes was added in a volume of 65 μL per well, resulting in a final DMSO concentration of 0.5%. The plate is incubated for 2 h at 37° C. under 5% CO2/95% air. Subsequently, 5 μL of recombinant human IL-4 (R&D Systems, cat #204-ILB) was added to the wells to a final concentration of […]. The plate was incubated for 48 h at 37° C. under 5% CO2/95% air. The plate was spun down for 10 minutes at 500×g and 20 μL supernatant was harvested and transferred to a 384 well v-bottom plate using a liquid handler and stored at −20° C. until further analysis. 10 μL supernatant was used to measure the level of Eotaxin-3 (CCL26) using Human Eotaxin-3 MSD kit from Mesocsale (Cat #K251UEK-4). The assay was performed according to the manufacture instructions.
The data from the human whole blood eotaxin-3 assay is shown in FIG. 2 for Examples 3u208, 3u246, 3u118, 3u119, 3u120, and 3u74 (where the effect in % is plotted against the test concentration in M on a log scale).
The term EC50 denotes the concentration at which the effect is half-maximal. Read a high EC50 as a need for much substance. In turn, `Cc1cc(C(=O)N2CCC(CN3CCN(c4cc5c(cc4F)n(C4CCC(=O)NC4=O)c(=O)n5C)CC3)CC2)cc(F)c1C1=CCN([C@@H](C)c2cc3c(-n4cc(F)c5c(c4=O)CCN5)ccnc3n2C)CC1` (stereo partly drawn) [Example 3u253, 3-(6-fluoro-5-(4-((1-(3-fluoro-4-(1-((S)-1-(4-(7-fluoro-4-oxo-1,2,3,4-tetrahydro-5H-pyrrolo[3,2-c]pyridin-5-yl)-1-methyl-1H-pyrrolo[2,3-b]pyridin-2-yl)ethyl)-1,2,3,6-tetrahydropyridin-4-yl)-5-methylbenzoyl)piperidin-4-yl)methyl)piperazin-1-yl)-3-methyl-2-oxo-2,3-dihydro-1H-benzo[d]imidazol-1-yl)piperidine-2,6-dione] came in with an EC50 of 0.0081 µM.

`C[C@@H](c1cc2c(-n3cc(F)c4c(c3=O)CCN4)ccnc2n1C)N1CC=C(c2c(F)cc(C(=O)N3CCC(CN4CCN(Cc5ccc6c(c5)n(C)c(=O)n6C5CCC(=O)NC5=O)CC4)CC3)cc2F)CC1` (stereo partly drawn) [Example 3u83, 3-(5-((4-((1-(3,5-difluoro-4-(1-((S)-1-(4-(7-fluoro-4-oxo-1,2,3,4-tetrahydro-5H-pyrrolo[3,2-c]pyridin-5-yl)-1-methyl-1H-pyrrolo[2,3-b]pyridin-2-yl)ethyl)-1,2,3,6-tetrahydropyridin-4-yl)benzoyl)piperidin-4-yl)methyl)piperazin-1-yl)methyl)-3-methyl-2-oxo-2,3-dihydro-1H-benzo[d]-imidazol-1-yl)piperidine-2,6-dione] had an EC50 of 0.008 µM. Then `CNc1cc(=O)n(-c2ccnc3c2cc([C@H](C)N2CC=C(c4c(C)cc(C(=O)N5CCC(CN6CCN(c7cc8c(cc7F)N(C7CCC(=O)NC7=O)C(=O)C87CC7)CC6)CC5)cc4F)CC2)n3C)cc1F` (stereo partly drawn) [Example 3u305, 3-(6′-fluoro-5′-(4-((1-(3-fluoro-4-(1-((S)-1-(4-(5-fluoro-4-(methylamino)-2-oxopyridin-1 (2H)-yl)-1-methyl-1H-pyrrolo[2,3-b]pyridin-2-yl)ethyl)-1,2,3,6-tetrahydropyridin-4-yl)-5-methylbenzoyl)piperidin-4-yl)methyl)piperazin-1-yl)-2′-oxospiro[cyclopropane-1,3′-indolin]-1′-yl)piperidine-2,6-dione], with 0.0249 µM; and `CNc1nc(=O)n(-c2ccnc3c2cc([C@H](C)N2CC=C(c4c(C)cc(C(=O)N5CCC(CN6CCN(c7cc8c(cc7F)n(C7CCC(=O)NC7=O)c(=O)n8C)CC6)CC5)cc4F)CC2)n3C)cc1F` (stereo partly drawn) [Example 3u268, 3-(6-fluoro-5-(4-((1-(3-fluoro-4-(1-((S)-1-(4-(5-fluoro-4-(methylamino)-2-oxopyrimidin-1 (2H)-yl)-1-methyl-1H-pyrrolo[2,3-b]pyridin-2-yl)ethyl)-1,2,3,6-tetrahydropyridin-4-yl)-5-methylbenzoyl)piperidin-4-yl)methyl)piperazin-1-yl)-3-methyl-2-oxo-2,3-dihydro-1H-benzo[d]-imidazol-1-yl)piperidine-2,6-dione], with 0.0056 µM. The molecule `CNc1ccn(-c2ccnc3c2cc(CN2CCC(c4c(F)cc(C(=O)N5CCC(CN6CCN(c7cc8c(cc7F)n(C7CCC(=O)NC7=O)c(=O)n8C)CC6)CC5)cc4F)CC2)n3C)c(=O)c1` (centres unmarked) [Example 3u270, 3-(5-(4-((1-(3,5-difluoro-4-(1-((1-methyl-4-(4-(methylamino)-2-oxopyridin-1 (2H)-yl)-1H-pyrrolo[2,3-b]pyridin-2-yl)methyl)piperidin-4-yl)benzoyl)piperidin-4-yl)methyl)piperazin-1-yl)-6-fluoro-3-methyl-2-oxo-2,3-dihydro-1H-benzo[d]imidazol-1-yl)piperidine-2,6-dione] registered an EC50 of 0.0268 µM. Then `CNc1ccn(-c2ccnc3c2cc([C@H](C)N2CC=C(c4c(C)cc(C(=O)N5CCC(CN6CCN(c7ccc8c(c7)C(C)(C)C(=O)N8[C@H]7CCC(=O)NC7=O)CC6)CC5)cc4F)CC2)n3C)c(=O)c1` (single isomer, unassigned) [Example 3u280], with 0.0128 µM. With `C[C@@H](c1cc2c(-n3cc(F)c4c(c3=O)CCN4)ccnc2n1C)N1CC=C(c2c(F)cc(C(=O)N3CCC(CN4CCN(c5cc6c(cc5F)n(C5CCC(=O)NC5=O)c(=O)n6C)CC4)CC3)cc2F)CC1` (stereo partly drawn) [Example 3u269, 3-(5-(4-((1-(3,5-difluoro-4-(1-((S)-1-(4-(7-fluoro-4-oxo-1,2,3,4-tetrahydro-5H-pyrrolo[3,2-c]pyridin-5-yl)-1-methyl-1H-pyrrolo[2,3-b]pyridin-2-yl)ethyl)-1,2,3,6-tetrahydropyridin-4-yl)benzoyl)piperidin-4-yl)methyl)piperazin-1-yl)-6-fluoro-3-methyl-2-oxo-2,3-dihydro-1H-benzo[d]-imidazol-1-yl)piperidine-2,6-dione], the response was half-maximal at 0.0963 µM (EC50).

The molecule `CNc1cc(=O)n(-c2ccnc3c2cc(CN2CCC(c4c(F)cc(C(=O)N5CCC(CN6CCN(c7ccc8c(c7)C7(CC7)C(=O)N8[C@H]7CCC(=O)NC7=O)CC6)CC5)cc4F)CC2)n3C)cc1F` (single isomer, unassigned) [Example 3u288] yielded an EC50 of 0.0883 µM.

`CNc1cc(=O)n(-c2ccnc3c2cc(CN2CCC(c4c(F)cc(C(=O)N5CCC(CN6CCN(c7ccc8c(c7)C7(CC7)C(=O)N8[C@@H]7CCC(=O)NC7=O)CC6)CC5)cc4F)CC2)n3C)cc1F` (single isomer, unassigned) [Example 3u289] registered an EC50 of 0.0189 µM. Then `CNc1cc(=O)n(-c2ccnc3c2cc([C@H](C)N2CC=C(c4c(C)cc(C(=O)N5CCC(CN6CCC(c7ccc8c(c7)C7(CC7)C(=O)N8C7CCC(=O)NC7=O)CC6)CC5)cc4F)CC2)n3C)cc1F` (stereo partly drawn) [Example 3u282, 3-(5′-(1-((1-(3-fluoro-4-(1-((S)-1-(4-(5-fluoro-4-(methylamino)-2-oxopyridin-1 (2H)-yl)-1-methyl-1H-pyrrolo[2,3-b]pyridin-2-yl)ethyl)-1,2,3,6-tetrahydropyridin-4-yl)-5-methylbenzoyl)-piperidin-4-yl)methyl)piperidin-4-yl)-2′-oxospiro[cyclopropane-1,3′-indolin]-1′-yl)piperidine-2,6-dione], with 0.0069 µM.

In turn, `CNc1cc(=O)n(-c2ccnc3c2cc([C@H](C)N2CC=C(c4c(C)cc(C(=O)N5CCC(O)(CC6CCN(c7ccc8c(c7)C7(CC7)C(=O)N8C7CCC(=O)NC7=O)CC6)CC5)cc4F)CC2)n3C)cc1F` (stereo partly drawn) [Example 3u283, 3-(5′-(4-((1-(3-fluoro-4-(1-((S)-1-(4-(5-fluoro-4-(methylamino)-2-oxopyridin-1 (2H)-yl)-1-methyl-1H-pyrrolo[2,3-b]pyridin-2-yl)ethyl)-1,2,3,6-tetrahydropyridin-4-yl)-5-methylbenzoyl)-4-hydroxypiperidin-4-yl)methyl)piperidin-1-yl)-2′-oxospiro[cyclopropane-1,3′-indolin]-1′-yl)piperidine-2,6-dione] registered an EC50 of 0.126 µM. Against the preceding molecule, the EC50 is about 18-fold higher.

Consider `CNc1cc(=O)n(-c2ccnc3c2cc([C@H](C)N2CC=C(c4c(C)cc(C(=O)N5CCC(F)(CN6CCN(c7ccc8c(c7)C7(CC7)C(=O)N8C7CCC(=O)NC7=O)CC6)CC5)cc4F)CC2)n3C)cc1F` (stereo partly drawn) [Example 3u136, 3-(5′-(4-((4-fluoro-1-(3-fluoro-4-(1-((S)-1-(4-(5-fluoro-4-(methylamino)-2-oxopyridin-1 (2H)-yl)-1-methyl-1H-pyrrolo[2,3-b]pyridin-2-yl)ethyl)-1,2,3,6-tetrahydropyridin-4-yl)-5-methyl-benzoyl)piperidin-4-yl)methyl)piperazin-1-yl)-2′-oxospiro[cyclopropane-1,3′-indolin]-1′-yl)piperidine-2,6-dione], for which the EC50 came out at 0.0164 µM. With `CNc1ccn(-c2ccnc3c2cc([C@H](C)N2CC=C(c4c(C)cc(C(=O)N5CCn6c(nnc6C6CCN(c7ccc8c(c7)n(C)c(=O)n8C7CCC(=O)NC7=O)CC6)C5)cc4F)CC2)n3C)c(=O)c1` (stereo partly drawn) [Example 3u260, 3-(5-(4-(7-(3-fluoro-5-methyl-4-(1-((S)-1-(1-methyl-4-(4-(methylamino)-2-oxopyridin-1 (2H)-yl)-1H-pyrrolo[2,3-b]pyridin-2-yl)ethyl)-1,2,3,6-tetrahydropyridin-4-yl)benzoyl)-5,6,7,8-tetrahydro-[1,2,4]triazolo[4,3-a]pyrazin-3-yl)piperidin-1-yl)-3-methyl-2-oxo-2,3-dihydro-1H-benzo[d]imidazol-1-yl)piperidine-2,6-dione] the figure was 0.0112 µM; with `CNc1ccn(-c2ccnc3c2cc(CN2CCC(c4c(F)cc(C(=O)N5CCC(CN6CCN(c7ccc8c(c7)C7(CC7)C(=O)N8[C@@H]7CCC(=O)NC7=O)CC6)CC5)cc4F)CC2)n3C)c(=O)c1` (single isomer, unassigned) [Example 3u150], 0.0392 µM.
